≈ marks a conversion by molar mass, not a printed value.
Key:
Format in all cases: functional
Klebsiella pneumoniae [1] = assay: Antimicrobial activity against ESBL-producing Klebsiella pneumoniae clinical isolate assessed as resistant isolates
Klebsiella pneumoniae [2] = assay: Antimicrobial activity against ESBL-producing Klebsiella pneumoniae clinical isolate assessed as susceptible isolates
Klebsiella pneumoniae [3] = assay: Antimicrobial activity against ESBL-producing Klebsiella pneumoniae clinical isolate by broth microdilution method

Row | Compound | Activity (Klebsiella pneumoniae [1]) | Activity (Klebsiella pneumoniae [2]) | MIC50 (Klebsiella pneumoniae [3]) | MIC90 (Klebsiella pneumoniae [3])
1 | NCC[C@H](O)C(=O)N[C@@H]1C[C@H](N)[C@@H](O[C@H]2O[C@H](CN)[C@@H](O)[C@H](O)[C@H]2O)[C@H](O)[C@H]1O[C@H]1O[C@H](CO)[C@@H](O)[C@H](N)[C@H]1O [AMIKACIN] | 102 isolates | 106 isolates | 32 mg/L (≈ 54.6 µM) | 64 mg/L (≈ 109 µM)
2 | CC1(C)S[C@@H]2[C@H](NC(=O)[C@H](N)c3ccccc3)C(=O)N2[C@H]1C(=O)O [AMPICILLIN] | 235 isolates | 0 isolates | > 64 mg/L | > 64 mg/L
3 | CO/N=C(\C(=O)N[C@@H]1C(=O)N2C(C(=O)O)=C(COC(C)=O)CS[C@H]12)c1csc(N)n1 [CEFOTAXIME] | 146 isolates | 12 isolates | 64 mg/L (≈ 141 µM) | 64 mg/L (≈ 141 µM)
4 | CO[C@@]1(NC(=O)Cc2cccs2)C(=O)N2C(C(=O)O)=C(COC(N)=O)CS[C@@H]21 [CEFOXITIN] | 95 isolates | 102 isolates | 16 mg/L (≈ 37.4 µM) | 32 mg/L (≈ 74.9 µM)
5 | CC(C)(O/N=C(\C(=O)N[C@@H]1C(=O)N2C(C(=O)[O-])=C(C[n+]3ccccc3)CS[C@H]12)c1csc(N)n1)C(=O)O [CEFTAZIDIME] | 158 isolates | 38 isolates | 32 mg/L (≈ 58.5 µM) | 32 mg/L (≈ 58.5 µM)
6 | C[C@@H](O)[C@H]1C(=O)N2C(C(=O)O)=C(SCCNC=N)C[C@H]12 [IMIPENEM ANHYDROUS] | 2 isolates | 230 isolates | 0.25 mg/L (≈ 0.835 µM) | 2 mg/L (≈ 6.68 µM)
7 | GENTAMICIN | – | 21% | 16 mg/L | 16 mg/L

Reference: ChEMBL document CHEMBL1629569, “Widespread dissemination of aminoglycoside resistance genes armA and rmtB in Klebsiella pneumoniae isolates in Taiwan producing CTX-M-type extended-spectrum beta-lactamases” (2009)
